Results: US10385024B2, “Compounds and methods for inhibiting NHE-mediated antiport in the treatment of disorders associated with fluid retention or salt overload and gastrointestinal tract disorders” (Ardelyx, Inc., priority 2012, dated 2019)

Assays:
[1] = biological target: T1, human NHE-3 (Homo sapiens, UniProt P48764); experiment: Cell-based assay of NHE-3 activity (human NHE3 inhibition assay); conditions: OK cells with human NHE-3 gene, BCECF pH dye, 0-30 μM test compound; for IC50: read-out: Human NHE3 pIC50 (converted)
T1 construct: expressed in transfected cells; host or cells: Opossum kidney (OK) cells (ATCC), transfected by electroporation
T1 sequence (P48764 26-834): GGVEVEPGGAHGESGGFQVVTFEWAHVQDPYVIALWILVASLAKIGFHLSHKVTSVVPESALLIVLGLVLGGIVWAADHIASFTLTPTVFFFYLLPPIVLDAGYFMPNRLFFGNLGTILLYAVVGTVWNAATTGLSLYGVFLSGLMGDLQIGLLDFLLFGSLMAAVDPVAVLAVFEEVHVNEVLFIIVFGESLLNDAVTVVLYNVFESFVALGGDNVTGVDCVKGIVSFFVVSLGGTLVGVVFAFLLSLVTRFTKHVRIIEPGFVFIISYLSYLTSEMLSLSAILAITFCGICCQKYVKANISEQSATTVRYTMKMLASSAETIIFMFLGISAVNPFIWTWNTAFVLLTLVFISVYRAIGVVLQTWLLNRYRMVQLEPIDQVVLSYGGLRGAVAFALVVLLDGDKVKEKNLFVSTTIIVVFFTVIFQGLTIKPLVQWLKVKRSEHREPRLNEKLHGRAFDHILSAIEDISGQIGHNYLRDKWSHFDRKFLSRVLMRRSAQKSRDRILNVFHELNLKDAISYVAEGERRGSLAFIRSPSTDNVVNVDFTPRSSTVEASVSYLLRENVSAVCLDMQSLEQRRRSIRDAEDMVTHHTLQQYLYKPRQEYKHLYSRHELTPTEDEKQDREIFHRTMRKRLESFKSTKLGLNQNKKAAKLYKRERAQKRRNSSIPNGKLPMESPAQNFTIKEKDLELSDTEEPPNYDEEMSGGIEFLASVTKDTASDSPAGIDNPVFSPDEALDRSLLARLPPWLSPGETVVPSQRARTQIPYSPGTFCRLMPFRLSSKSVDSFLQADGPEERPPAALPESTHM
How it was run: (§1)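 Opossum kidney cells electroporated with rat or human NHE-3, loaded with 5 μM BCECF-AM in NH4Cl-HEPES pH 7.4 for 30 min at RT, then acidified 10 min in Na+-free choline HEPES. Na+-dependent pH recovery rates from BCECF fluorescence, averaged over ≥2 replicates, gave pIC50.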

[2] = biological target: T2, Rat NHE-3 (Rattus norvegicus, UniProt P26433); experiment: Cell-based assay of NHE-3 activity (persistent inhibition, after washout); conditions: OK cells with rat NHE-3 gene, 60 min incubation, recovery initiated 40 min after compound washout; for IC50: read-out: Rat NHE3 pIC50 (persistent) (converted)
T2 construct: expressed in transfected cells; host or cells: Opossum kidney (OK) cells (ATCC), transfected by electroporation
How it was run: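 OK cells transiently expressing rat NHE-3 were exposed to 0-30 μM compound in NaCl-HEPES pH 7.4 for 60 min, then washed free of drug before NH4Cl/BCECF-AM loading and acid-loading in Na+-free choline buffer. Na+-dependent pH recovery rates (mean of ≥2 replicates) gave pIC50.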

[3] = biological target: T2, Rat NHE-3; experiment: Cell-based assay of NHE-3 activity (rat NHE-3 prompt inhibition); conditions: OK cells with rat NHE-3 gene, compound present during pH recovery; for IC50: read-out: Rat NHE3 pIC50 (prompt) (converted)
How it was run: as §1

[4] = tested on: absorption of sodium from the intestinal lumen; experiment: Inhibition of intestinal sodium absorption (urinary sodium and fecal form); type: in vivo, Sprague-Dawley rats; conditions: rat; for response vs control in vivo at 3 mg/kg: 3 mg/kg oral gavage, urine 16 h post-dose, asterisks = significance vs vehicle (*P<0.05, **P<0.01, ***P<0.001), read-out: uNa (% of vehicle); for FFS: fecal form score, scale 1 (normal pellet) to 5 (liquid fecal streams), group average, 3 mg/kg oral, 16 h post-dose, vehicle = 1
Protocol: Urinary sodium concentration and fecal form were measured to assess the ability of selected example compounds to inhibit the absorption of sodium from the intestinal lumen. Eight-week old Sprague-Dawley rats were purchased from Charles River Laboratories (Hollister, Calif.), were housed 2 per cage, and acclimated for at least 3 days before study initiation. Animals were fed Harlan Teklad Global 2018 rodent chow (Indianapolis, Ind.) and water ad libitum throughout the study and maintained in a standard light/dark cycle of 6 AM to 6 PM. On the day of the study, between 4 PM and 5 PM, a group of rats (n=6) were dosed via oral gavage with test compound at the dosage indicated or vehicle (water) at a volume of 10 mL/kg. After dose administration animals were placed in individual metabolic cages where they were also fed the same chow in meal form and watered ad libitum. At 16 h post-dose, the urine samples were collected and fecal form was assessed by two independent observations. Fecal forms were scored according to a common scale associated with increasing fecal water to the wettest observation in the cage's collection funnel (1, normal pellet; 2, pellet adhering to sides of collection funnel due to moisture; 3, loss of normal pellet shape; 4, complete loss of shape with a blotting pattern; 5, liquid fecal streams evident). A rat's fecal form score (FFS) was determined by averaging both observational scores for all rats within a group (n=6). In every study the vehicle group average was 1. For urine samples, the volumes were determined gravimetrically and centrifuged at 3,600×g. The supernatants were diluted 100-fold in deionized Milli-Q water then filtered through a 0.2 μm GHP Pall AcroPrep filter plate (Pall Life Sciences, Ann Arbor, Mich.) prior to analysis by ion chromatography. Ten microliters of each filtered extract was injected onto a Dionex ICS-3000 ion chromatograph system (Dionex, Sunnyvale, Calif.). Cations were separated by an isocratic method using 25 mM methanesulfonic acid as the eluent on an IonPac CS12A 2 mm i.d.×250 mm, 8 μm particle size cation exchange column (Dionex). Sodium was quantified using standards prepared from a cation standard mix containing Li^+, Na^+, NH4^+, K^+, Mg^2+, and Ca^2+ (Dionex). The mean mass of sodium urinated for every group in the 16 h period was determined with the vehicle group usually urinating approximately 21 mg sodium. The urine Na (uNa) for rats in the test groups were expressed as a percentage of the vehicle mean and the means were compared to that of the vehicle group by utilizing a one-way analysis of variance coupled with a Dunnett's post hoc test.

T2 sequence (P26433 29-831): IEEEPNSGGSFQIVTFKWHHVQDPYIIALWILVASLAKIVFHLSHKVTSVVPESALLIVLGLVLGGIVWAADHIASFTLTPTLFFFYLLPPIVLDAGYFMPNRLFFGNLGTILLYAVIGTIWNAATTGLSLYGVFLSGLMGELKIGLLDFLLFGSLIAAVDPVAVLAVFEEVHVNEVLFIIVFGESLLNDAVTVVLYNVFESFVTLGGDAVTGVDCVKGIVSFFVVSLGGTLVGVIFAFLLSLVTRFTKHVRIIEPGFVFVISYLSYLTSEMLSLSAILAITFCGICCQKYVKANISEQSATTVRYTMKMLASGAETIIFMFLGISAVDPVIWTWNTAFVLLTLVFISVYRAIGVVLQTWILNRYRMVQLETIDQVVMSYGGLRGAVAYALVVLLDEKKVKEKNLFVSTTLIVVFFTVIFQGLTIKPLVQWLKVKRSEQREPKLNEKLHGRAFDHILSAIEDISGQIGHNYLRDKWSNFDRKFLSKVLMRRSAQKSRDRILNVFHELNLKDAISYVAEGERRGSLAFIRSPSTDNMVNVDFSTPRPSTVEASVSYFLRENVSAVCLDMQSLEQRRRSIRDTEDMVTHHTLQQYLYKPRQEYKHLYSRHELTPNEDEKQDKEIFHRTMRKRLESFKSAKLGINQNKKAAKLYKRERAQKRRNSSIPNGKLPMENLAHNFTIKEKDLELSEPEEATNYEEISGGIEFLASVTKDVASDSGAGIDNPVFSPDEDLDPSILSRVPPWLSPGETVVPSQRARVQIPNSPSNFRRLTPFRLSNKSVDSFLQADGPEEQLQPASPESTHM

SMILES	IC50 [1] [nM]	IC50 [2] [nM]	IC50 [3] [nM]	response vs control in vivo at 3 mg/kg [4] [%]	FFS [4]	Human NHE3 pIC50 [1]	Rat NHE3 pIC50 (persistent) [2]	Rat NHE3 pIC50 (prompt) [3]
CN1Cc2c(Cl)cc(Cl)cc2[C@H](c2cccc(S(=O)(=O)NCCOCCOCCNC(=O)CCC(CCC(=O)NCCOCCOCCNS(=O)(=O)c3cccc([C@@H]4CN(C)Cc5c(Cl)cc(Cl)cc54)c3)(CCC(=O)NCCOCCOCCNS(=O)(=O)c3cccc([C@@H]4CN(C)Cc5c(Cl)cc(Cl)cc54)c3)NC(N)=O)c2)C1 [Example 8, N1,N7-bis(2-(2-(2-(3-((S)-6,8-dichloro-2-methyl-1,2,3,4-tetrahydroisoquinolin-4-yl)phenylsulfonamido)ethoxy)ethoxy)ethyl)-4-(3-(2-(2-(2-(3-((S)-6,8-dichloro-2-methyl-1,2,3,4-tetrahydroisoquinolin-4-yl)phenylsulfonamido)ethoxy)ethoxy)ethylamino)-3-oxopropyl)-4-ureidoheptanediamide]	< 100	< 100	100 to 10000	< 35				
CN1Cc2c(Cl)cc(Cl)cc2[C@H](c2cccc(S(=O)(=O)NCCOCCOCCOCCNC(=O)CCC(N)(CCC(=O)NCCOCCOCCOCCNS(=O)(=O)c3cccc([C@@H]4CN(C)Cc5c(Cl)cc(Cl)cc54)c3)CCC(=O)NCCOCCOCCOCCNS(=O)(=O)c3cccc([C@@H]4CN(C)Cc5c(Cl)cc(Cl)cc54)c3)c2)C1 [Example 9, 4-amino-4-(1-(3-((S)-6,8-dichloro-2-methyl-1,2,3,4-tetrahydroisoquinolin-4-yl)phenylsulfonamido)-13-oxo-3,6,9-trioxa-12-azapentadecan-15-yl)-N^1,N^7-bis(2-(2-(2-(2-(3-((S)-6,8-dichloro-2-methyl-1,2,3,4-tetrahydroisoquinolin-4-yl)phenylsulfonamido)ethoxy)ethoxy)ethoxy)ethyl)heptanediamide]	< 100	< 100	< 100	< 35				
CCC(=O)NC(CCC(=O)NCCOCCOCCOCCNS(=O)(=O)c1cccc([C@@H]2CN(C)Cc3c(Cl)cc(Cl)cc32)c1)(CCC(=O)NCCOCCOCCOCCNS(=O)(=O)c1cccc([C@@H]2CN(C)Cc3c(Cl)cc(Cl)cc32)c1)CCC(=O)NCCOCCOCCOCCNS(=O)(=O)c1cccc([C@@H]2CN(C)Cc3c(Cl)cc(Cl)cc32)c1 [Example 10, 4-(1-(3-((S)-6,8-dichloro-2-methyl-1,2,3,4-tetrahydroisoquinolin-4-yl)phenylsulfonamido)-13-oxo-3,6,9-trioxa-12-azapentadecan-15-yl)-N1,N7-bis(2-(2-(2-(2-(3-((S)-6,8-dichloro-2-methyl-1,2,3,4-tetrahydroisoquinolin-4-yl)phenylsulfonamido)ethoxy)ethoxy)ethoxy)ethyl)-4-propionamidoheptanediamide]	< 100	< 100	< 100	35 to 75	2			
CN1Cc2c(Cl)cc(Cl)cc2[C@H](c2cccc(S(=O)(=O)NCCOCCOCCNC(=O)CCC(CCC(=O)NCCOCCOCCNS(=O)(=O)c3cccc([C@@H]4CN(C)Cc5c(Cl)cc(Cl)cc54)c3)(CCC(=O)NCCOCCOCCNS(=O)(=O)c3cccc([C@@H]4CN(C)Cc5c(Cl)cc(Cl)cc54)c3)NC(=O)N[C@@H](CC(=O)O)C(=O)O)c2)C1 [Example 12, (S)-2-(3-(1,25-bis(3-((S)-6,8-dichloro-2-methyl-1,2,3,4-tetrahydroisoquinolin-4-yl)phenylsulfonamido)-13-(3-(2-(2-(2-(3-((S)-6,8-dichloro-2-methyl-1,2,3,4-tetrahydroisoquinolin-4-yl)phenylsulfonamido)ethoxy)ethoxy)ethylamino)-3-oxopropyl)-10,16-dioxo-3,6,20,23-tetraoxa-9,17-diazapentacosan-13-yl)ureido)succinic acid]	< 100	< 100	< 100	35 to 75	3			
CN1Cc2c(Cl)cc(Cl)cc2[C@H](c2cccc(S(=O)(=O)NCCOCCOCCNC(=O)CCC(CCC(=O)NCCOCCOCCNS(=O)(=O)c3cccc([C@@H]4CN(C)Cc5c(Cl)cc(Cl)cc54)c3)(CCC(=O)NCCOCCOCCNS(=O)(=O)c3cccc([C@@H]4CN(C)Cc5c(Cl)cc(Cl)cc54)c3)NC(=O)N(C)C)c2)C1 [Example 25]				< 35		B (B NHE3 pIC50 5-7)	C (C NHE3 pIC50 > 7)	B (B NHE3 pIC50 5-7)
CNC(=O)NC(CCC(=O)NCCOCCOCCNS(=O)(=O)c1cccc([C@@H]2CN(C)Cc3c(Cl)cc(Cl)cc32)c1)(CCC(=O)NCCOCCOCCNS(=O)(=O)c1cccc([C@@H]2CN(C)Cc3c(Cl)cc(Cl)cc32)c1)CCC(=O)NCCOCCOCCNS(=O)(=O)c1cccc([C@@H]2CN(C)Cc3c(Cl)cc(Cl)cc32)c1 [Example 26]				< 35		C (C NHE3 pIC50 > 7)	C (C NHE3 pIC50 > 7)	B (B NHE3 pIC50 5-7)
CN(CC(=O)O)CC(=O)NC(CCC(=O)NCCOCCOCCNS(=O)(=O)c1cccc([C@@H]2CN(C)Cc3c(Cl)cc(Cl)cc32)c1)(CCC(=O)NCCOCCOCCNS(=O)(=O)c1cccc([C@@H]2CN(C)Cc3c(Cl)cc(Cl)cc32)c1)CCC(=O)NCCOCCOCCNS(=O)(=O)c1cccc([C@@H]2CN(C)Cc3c(Cl)cc(Cl)cc32)c1 [Example 27]				35 to 75		C (C NHE3 pIC50 > 7)	C (C NHE3 pIC50 > 7)	C (C NHE3 pIC50 > 7)
CN1Cc2c(Cl)cc(Cl)cc2C(c2cccc(S(=O)(=O)NCCOCCOCCNC(=O)CCC(CCC(=O)NCCOCCOCCNS(=O)(=O)c3cccc(C4CN(C)Cc5c(Cl)cc(Cl)cc54)c3)(CCC(=O)NCCOCCOCCNS(=O)(=O)c3cccc(C4CN(C)Cc5c(Cl)cc(Cl)cc54)c3)NC(=O)C3CCCCC3C(=O)O)c2)C1 (stereo not shown) [Example 28]				35 to 75		C (C NHE3 pIC50 > 7)	C (C NHE3 pIC50 > 7)	B (B NHE3 pIC50 5-7)
